Test results reported in article PMC3341351, “Down-Regulation of GABAA Receptor via Promiscuity with the Vasoactive Peptide Urotensin II Receptor. Potential Involvement in Astrocyte Plasticity” (PLoS ONE, 2012).
Entries after “also recorded” stand apart in the source; their conditions may differ. One block for each molecule: values may come before it. Where no end group is shown, it is not given here.

Experiments:
human UT [1] = target: T1, human UT (Homo sapiens, UniProt Q9UKP6); assay: Fura-2 calcium imaging ([Ca^2+]c) in CHO-UT; format: cell-based
T1 construct: expressed in transfected cells; host or cells: CHO-K1 electroporated with pIRES-neo2-UT, G-418 selected
T1 sequence (Q9UKP6 1-389): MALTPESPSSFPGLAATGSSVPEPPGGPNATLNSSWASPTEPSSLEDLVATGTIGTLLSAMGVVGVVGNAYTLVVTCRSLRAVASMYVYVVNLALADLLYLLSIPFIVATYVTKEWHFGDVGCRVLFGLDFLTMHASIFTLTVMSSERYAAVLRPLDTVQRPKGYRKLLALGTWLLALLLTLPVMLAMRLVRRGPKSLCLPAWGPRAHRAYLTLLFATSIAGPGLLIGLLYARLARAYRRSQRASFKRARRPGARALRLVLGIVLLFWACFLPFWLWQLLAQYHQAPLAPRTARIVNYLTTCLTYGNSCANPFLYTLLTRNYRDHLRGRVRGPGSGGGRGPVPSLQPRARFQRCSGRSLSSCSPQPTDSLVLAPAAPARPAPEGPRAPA
Procedure: (§1) CHO-K1 cell lines were obtained from American Type Culture Collection (Manassas, VA, USA). The human UT stable CHO (CHO-UT) was generously provided by Dr Christophe Dubessy (Inserm, Rouen University, France) et generated by CHO electroporation with 20 µg pIRES-neo2-UT DNA and 500 µg sterile sonicated salmon sperm DNA using the EasyJect One electroporation system (Equibio, Angleur, Belgium), followed by repetitive rounds of limiting dilution of cells in G-418 (400 µg/ml) for selection. Normal or stable CHO was grown in Ham-F12 medium supplemented with 10% FBS, 1% antibiotic-antimicotic solution and 2 mM glutamine, at 37°C in a humidified incubator with an atmosphere of 5% CO2. The stable CHO-UT medium was supplemented with the antibiotic G-418 (40 µg/ml).
For cell calcium imaging, Fura-2 AM (5 mM, Molecular Probe; Fisher, Cergy-Pontoise, France) was dissolved in 20% pluronic F-127 (w/v, DMSO) and then added to culture medium at final concentrations of 5 µM and 0.02%, with 2.5 mM probenecid (Sigma-Aldrich) respectively. Cells were incubated in the dye solution for 1 h in an humidified atmosphere (37°C, 5% CO2) and then rinsed in the standard extracellular solution used for patch-clamp experiments. For simultaneous measurements of intracellular calcium and chloride-evoked currents in CHO, patch-clamp electrodes were filled with an internal solution containing : KCl, 140; MgCl2, 4; Fura-2-pentoK, 0.25; HEPES, 10; ATP, 1; GTP, 0.1 (pH 7.4 adjusted with KOH). Fluorescence images were acquired with the right microscope DMLFSA (Leica) equipped with a digital CCD camera Coolsnap HQ (Photometrics, Roper scientific, Evry, France). A high-speed scanning polychromatic light source was used for alternate excitations at wavelenghts of 340 and 380 nm. The fluorescence intensities at both wavelenghts (F340 and F380) were mesured every 500 ms. Image acquisition and analysis were obtained with a MetaFluor/Metamorph Imaging System (Roper scientific). The ratio between the two images was proportional to the [Ca^2+]c in the cell under study. Before an experiment, the bath ground level of fluorescence (attributable to autofluorescence and camera noise) was determined and systematically substracted.

human UT [2] = target: T1, human UT; conditions: ref [54], [55]; cited from earlier work
[3] = target: T2, α2β3γ2 GABAAR co-expressed with human UT (Homo sapiens, UniProt Q9UKP6); assay: Patch-clamp of Iso-evoked current in CHO-UT co-expressing α2β3γ2 GABAAR (CHO-UT-GABAAR); format: cell-based
T2 construct: expressed in transfected cells; host or cells: CHO-K1 stably expressing human UT (pIRES-neo2-UT), transiently nucleofected with GABAAR subunit cDNAs
T2 sequence (Q9UKP6 1-389): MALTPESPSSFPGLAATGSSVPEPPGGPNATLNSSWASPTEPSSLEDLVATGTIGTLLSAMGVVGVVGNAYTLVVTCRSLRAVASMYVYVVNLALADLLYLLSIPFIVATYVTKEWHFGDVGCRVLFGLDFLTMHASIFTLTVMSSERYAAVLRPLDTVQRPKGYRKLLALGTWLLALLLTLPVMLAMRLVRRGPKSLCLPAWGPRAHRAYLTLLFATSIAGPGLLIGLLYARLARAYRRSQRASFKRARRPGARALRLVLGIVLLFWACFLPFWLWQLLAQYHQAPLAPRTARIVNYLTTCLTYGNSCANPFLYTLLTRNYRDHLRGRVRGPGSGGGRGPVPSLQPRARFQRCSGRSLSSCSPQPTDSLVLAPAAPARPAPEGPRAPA
Procedure: as §1
(§2) For transfection, cells were trypsinized (0.05%), triturated in HamF-12 containing 10% FBS media, pelleted by centrifugation, resuspended in 100 µl solution V for nucleofection by an Amaxa Nucleofector Device (Köln, Germany; set to program U-016). Experiments were performed on normal CHO or on the stable CHO-UT cells and transiently transfected with combinations of cDNA encoding α2β3γ2, α2β3γ1, α2β1γ2, α2β3γ1, α2β3, β3γ2 (4 µg of cDNA total/transfection) GABAAR subunits. Cells were seeded on 14-mm poly-L-lysine-coated glass bottom insert dishes at 5×10^5 cells in a volume of 0.5 ml/dish. Cells were incubated overnight at 37°C in a humidified incubator (5% CO2) during 16 h before electrophysiological or immunocytochemical experiments.
(§3) GABAA receptor cDNA clones; α2, β1, β3, γ1 and γ2L engineered into the expression vector pCDM8 ([…], β1, γ2) or pcDNA/Amp (β3, γ1), were generously provided by Dr Wingrove (Merk Sharp and Dohme, Harlow, UK). To obtain β3 ^HA or γ2 ^HA epitope-tagged subunits, β3 or γ2 cDNA was amplified and the PCR product was subcloned using the SalI and NotI sites of pCMV-HA (Table S2) after digestion by the same restriction enzymes.
(§4) The conventional whole-cell configuration of the patch-clamp technique was used to study the GABA-gated currents in astrocytes and granule neurons, UT stably transfected CHO, CHO-UT, and CHO transiently transfected with diverse variants of UT and GABAAR subunits. After 24-h transfection, cell culture coverslips were placed in a small chamber (1.5 ml) on a stage of a right microscope DMLFSA (Leica, Heidelberg, Germany) and superfused continuously with the following bath solution containing (in mM): NaCl, 150; KCl, 2.5; HEPES, 5; CaCl2, 2; MgCl2, 1; glucose, 10 (pH 7.4 adjusted with NaOH). The patch pipettes were fabricated from 1.5 mm (outer diameter) soft glass tubes on a two-step vertical pipette puller (List-Medical, L/M-3P-A, Darmstadt, Germany). […] ATP and GTP were added to the internal solution used to fill electrode just before recording. All recordings were obtained at RT with cells voltage-clamped at −70 mV. The GABAA receptor agonist isoguvacine was prepared in the extracellular solution and was applied to cells by pneumatic pressure ejection. To prevent desenzitization, isoguvacine was more often ejected during 5 s at 2-min intervals. ATP, GTP, or guanosine 5′-O-(2-thiodiphosphate) (GDPβS) were administered through the patch pipette solution. We investigated the effect of competitive inhibition of GDP-GTP exchange by including GDPβS in the pipette solution (in addition to the normal amount of GTP). For GDPβS and the KIC, immediately following patch rupture, GABA current recordings were performed and the experiment was commenced after an equilibration period of 15 min.
All peptide ligands, inhibitors or allosteric modulators of the GABAA receptor function were applied via gravity through a plastic tubing positioned in the vicinity of the cell body in order to maintain a sustained perfusion. In these conditions, drugs could reach the cell of interest after 30 s of perfusion. Isoguvacine was applied focally by pneumatic pressure ejection from a micropipette.

[4] = system: α2β3γ2 GABAAR in the absence of UT; assay: Patch-clamp of Iso-evoked current in CHO expressing α2β3γ2 GABAAR without UT; format: cell-based; conditions: DMCM 10^−5 M; hUII and URP 10^−8 M; [Orn^5]-URP and palosuran 10^−6 M; Iso 10^−4 M, 2 s; n = 3–18
Procedure: as §2, §3
as §4, with “min. […]” for “min.”

[5] = target: T3, human urotensin II receptor UT, stably expressed in CHO (CHO-UT) (human) (UniProt Q9UKP6)
T3 sequence: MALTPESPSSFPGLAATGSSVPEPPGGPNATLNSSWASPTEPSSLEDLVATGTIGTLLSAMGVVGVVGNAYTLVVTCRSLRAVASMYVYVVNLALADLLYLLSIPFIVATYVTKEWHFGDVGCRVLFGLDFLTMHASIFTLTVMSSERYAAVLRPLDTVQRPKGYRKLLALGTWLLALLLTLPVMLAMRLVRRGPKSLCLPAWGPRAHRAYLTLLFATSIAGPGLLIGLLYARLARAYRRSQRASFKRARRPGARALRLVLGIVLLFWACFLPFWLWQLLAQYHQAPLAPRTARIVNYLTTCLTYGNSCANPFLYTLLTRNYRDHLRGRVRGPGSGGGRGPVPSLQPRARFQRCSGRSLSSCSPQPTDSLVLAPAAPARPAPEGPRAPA

[6] = target: T3, human urotensin II receptor UT, stably expressed in CHO (CHO-UT) (human); remark: listed apart in the source

- Effect/profile of antagonist on [Ca^2+]c (human UT [1]; 10^−6 M): failed to evoke a [Ca^2+]c rise
Molecule: Cc1cc(NC(=O)NCCN2CCC(O)(Cc3ccccc3)CC2)c2ccccc2n1.O=S(=O)(O)O [palosuran, 1-[2-(4-benzyl-4-hydroxy-piperidin-1-yl)-ethyl]-3-(2-methyl-quinolin-4-yl) -urea sulfate salt]
- Effect on hUII-induced [Ca^2+]c increase (human UT [1]; antagonist 10^−6 M before and during hUII): completely blocked the hUII-induced [Ca^2+]c increase; also recorded: counteracts the UII-evoked [Ca^2+]c increase
- Affinity toward human UT (human UT [2]): high affinity
- Effect of UT antagonist alone on Iso-evoked current ([3]; 10^−6 M, n = 7–54): mimicked the hUII-induced inhibition of the Iso-evoked current; also recorded: mimics the effect of UII by inhibiting the chloride current
- Effect on prolonged/irreversible action of hUII during washout on Iso-evoked current ([3]; antagonist 10^−6 M with hUII): abolished the irreversible action of hUII during washout
- Effect on Iso-evoked current in the absence of UT [4]: did not modulate the Iso-evoked current

- [Ca^2+]c increase (Fura-2 imaging) in CHO-UT, [Orn^5]-URP 10^-6 M; behaved as a partial agonist and prevented the sustained effect of hUII on [Ca^2+]c [5]: 265%
Molecule: [Orn^5]-URP (peptide)

- increase of the amplitude of baseline [Ca^2+]c (Fura-2 imaging) in CHO-UT, URP 10^-8 M in the bath; recovered after 16-min washout [5]: 341%
- inhibition of the isoguvacine-evoked chloride current (whole-cell patch clamp) in CHO-UT co-expressing alpha2beta3gamma2 GABAAR, URP 10^-8 M (n = 12) [6]: 22.9%
B1: urotensin II-related peptide (peptide)
peptide: ACFWKYCV
modifications: also: cyclic CFWKYC core, bridge type not given here
